Data reported in paper PMC11864979, “First-in-class ultralong-target-residence-time p38α inhibitors as a mitosis-targeted therapy for colorectal cancer” (Nature Cancer, 2025).
Like-named read-outs stand apart in the source and are kept apart here.

Key:
Test in all cases: selectivity profiling in a panel of 340 wild-type kinases (Reaction Biology Europe)
Format in all cases: binding
[1] = target: T1, 340 wild-type kinases (Homo sapiens, UniProt Q9UQM7)
T1 construct: purchased Reaction Biology Europe

[2] = target: T2, 340 wild-type kinases (Homo sapiens, UniProt Q07002)
T2 construct: purchased Reaction Biology Europe

[3] = target: T3, 340 wild-type kinases (Homo sapiens, UniProt P16234)
T3 construct: purchased Reaction Biology Europe

[4] = target: T4, 340 wild-type kinases (Homo sapiens, UniProt O75914)
T4 construct: purchased Reaction Biology Europe

[5] = target: T5, 340 wild-type kinases (Homo sapiens, UniProt Q8IW41)
T5 construct: purchased Reaction Biology Europe
T5 sequence (Q8IW41 1-473): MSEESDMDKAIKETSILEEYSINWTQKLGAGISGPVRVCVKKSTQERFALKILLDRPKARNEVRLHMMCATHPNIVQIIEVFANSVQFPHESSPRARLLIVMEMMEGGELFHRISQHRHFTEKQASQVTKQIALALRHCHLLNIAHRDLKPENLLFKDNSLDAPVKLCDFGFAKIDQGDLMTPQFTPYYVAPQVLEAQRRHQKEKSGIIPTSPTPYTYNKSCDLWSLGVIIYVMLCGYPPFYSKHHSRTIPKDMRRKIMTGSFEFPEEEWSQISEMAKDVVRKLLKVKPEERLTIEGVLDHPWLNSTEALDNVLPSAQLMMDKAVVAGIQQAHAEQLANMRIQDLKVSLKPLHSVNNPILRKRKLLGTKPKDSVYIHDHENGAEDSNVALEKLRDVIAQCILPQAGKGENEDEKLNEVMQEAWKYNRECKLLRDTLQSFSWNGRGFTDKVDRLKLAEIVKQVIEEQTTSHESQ

[6] = target: T6, 340 wild-type kinases (Homo sapiens, UniProt O75716)
T6 construct: purchased Reaction Biology Europe

[7] = target: T7, 340 wild-type kinases (Homo sapiens, UniProt P53671)
T7 construct: purchased Reaction Biology Europe

[8] = target: T8, 340 wild-type kinases (Homo sapiens, UniProt P10398, Y301D/Y302D)
T8 construct: purchased Reaction Biology Europe
T8 sequence (P10398 1-606 Y301D/Y302D): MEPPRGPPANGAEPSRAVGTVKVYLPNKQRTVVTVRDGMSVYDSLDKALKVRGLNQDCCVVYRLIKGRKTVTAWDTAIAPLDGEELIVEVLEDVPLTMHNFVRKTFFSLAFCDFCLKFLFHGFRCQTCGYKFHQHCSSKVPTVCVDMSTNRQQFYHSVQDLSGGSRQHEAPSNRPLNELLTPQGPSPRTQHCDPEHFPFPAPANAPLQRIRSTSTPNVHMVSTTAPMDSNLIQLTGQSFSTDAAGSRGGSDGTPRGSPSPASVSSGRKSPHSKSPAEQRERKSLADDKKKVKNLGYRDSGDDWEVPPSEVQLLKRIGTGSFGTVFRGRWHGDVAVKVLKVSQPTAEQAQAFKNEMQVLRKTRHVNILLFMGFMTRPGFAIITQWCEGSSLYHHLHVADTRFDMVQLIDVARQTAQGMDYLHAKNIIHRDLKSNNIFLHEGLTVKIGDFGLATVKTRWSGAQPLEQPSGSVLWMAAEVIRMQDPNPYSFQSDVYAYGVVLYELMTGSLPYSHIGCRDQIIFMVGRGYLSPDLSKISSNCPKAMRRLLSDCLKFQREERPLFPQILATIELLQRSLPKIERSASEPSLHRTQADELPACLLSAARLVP

[9] = target: T9, 340 wild-type kinases (Homo sapiens, UniProt O96013)
T9 construct: purchased Reaction Biology Europe

[10] = target: T10, 340 wild-type kinases (Homo sapiens, UniProt P51812)
T10 construct: purchased Reaction Biology Europe

[11] = target: T11, 340 wild-type kinases (Homo sapiens, UniProt Q04771)
T11 construct: purchased Reaction Biology Europe
T11 sequence (Q04771 21-509): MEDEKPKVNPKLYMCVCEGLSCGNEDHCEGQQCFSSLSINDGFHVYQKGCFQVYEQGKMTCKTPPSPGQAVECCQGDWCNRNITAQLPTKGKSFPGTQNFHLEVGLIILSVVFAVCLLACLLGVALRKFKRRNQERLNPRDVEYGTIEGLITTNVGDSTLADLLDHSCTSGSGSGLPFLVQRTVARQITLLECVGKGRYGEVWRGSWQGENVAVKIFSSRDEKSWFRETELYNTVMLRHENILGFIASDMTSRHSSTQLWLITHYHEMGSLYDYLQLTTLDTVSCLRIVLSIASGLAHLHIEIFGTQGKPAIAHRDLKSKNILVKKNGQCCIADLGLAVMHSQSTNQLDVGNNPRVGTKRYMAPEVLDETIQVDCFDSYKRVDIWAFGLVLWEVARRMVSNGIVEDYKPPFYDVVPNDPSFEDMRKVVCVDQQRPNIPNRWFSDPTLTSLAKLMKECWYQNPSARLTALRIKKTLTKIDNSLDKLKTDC

T4 sequence (O75914 whole entry): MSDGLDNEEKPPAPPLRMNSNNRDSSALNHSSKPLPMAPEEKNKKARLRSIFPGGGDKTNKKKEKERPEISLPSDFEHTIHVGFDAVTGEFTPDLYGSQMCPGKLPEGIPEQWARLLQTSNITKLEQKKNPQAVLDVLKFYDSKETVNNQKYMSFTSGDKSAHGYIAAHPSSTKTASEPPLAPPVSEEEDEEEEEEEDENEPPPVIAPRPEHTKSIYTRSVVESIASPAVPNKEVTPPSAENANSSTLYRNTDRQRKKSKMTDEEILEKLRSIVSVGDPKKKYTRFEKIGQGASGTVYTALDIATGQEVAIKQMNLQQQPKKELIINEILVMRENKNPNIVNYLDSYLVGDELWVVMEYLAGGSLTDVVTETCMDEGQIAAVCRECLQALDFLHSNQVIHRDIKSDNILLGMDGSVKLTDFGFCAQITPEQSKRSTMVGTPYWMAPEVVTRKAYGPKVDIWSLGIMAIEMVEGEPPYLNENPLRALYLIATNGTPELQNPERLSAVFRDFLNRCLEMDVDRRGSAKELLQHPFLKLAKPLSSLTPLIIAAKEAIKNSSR
T2 sequence (Q07002 whole entry): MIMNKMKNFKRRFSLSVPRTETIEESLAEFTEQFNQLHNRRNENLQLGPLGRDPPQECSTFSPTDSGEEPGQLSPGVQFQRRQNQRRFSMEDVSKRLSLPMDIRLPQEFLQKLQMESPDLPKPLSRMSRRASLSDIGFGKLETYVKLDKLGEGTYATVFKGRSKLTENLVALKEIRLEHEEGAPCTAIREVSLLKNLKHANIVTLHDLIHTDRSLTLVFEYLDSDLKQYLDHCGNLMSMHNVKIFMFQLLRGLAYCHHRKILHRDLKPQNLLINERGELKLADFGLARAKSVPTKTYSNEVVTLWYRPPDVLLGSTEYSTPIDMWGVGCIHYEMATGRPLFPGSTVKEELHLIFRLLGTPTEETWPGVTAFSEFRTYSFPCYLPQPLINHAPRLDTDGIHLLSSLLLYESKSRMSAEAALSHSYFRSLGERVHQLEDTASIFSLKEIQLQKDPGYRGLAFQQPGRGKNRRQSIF
T10 sequence (P51812 whole entry): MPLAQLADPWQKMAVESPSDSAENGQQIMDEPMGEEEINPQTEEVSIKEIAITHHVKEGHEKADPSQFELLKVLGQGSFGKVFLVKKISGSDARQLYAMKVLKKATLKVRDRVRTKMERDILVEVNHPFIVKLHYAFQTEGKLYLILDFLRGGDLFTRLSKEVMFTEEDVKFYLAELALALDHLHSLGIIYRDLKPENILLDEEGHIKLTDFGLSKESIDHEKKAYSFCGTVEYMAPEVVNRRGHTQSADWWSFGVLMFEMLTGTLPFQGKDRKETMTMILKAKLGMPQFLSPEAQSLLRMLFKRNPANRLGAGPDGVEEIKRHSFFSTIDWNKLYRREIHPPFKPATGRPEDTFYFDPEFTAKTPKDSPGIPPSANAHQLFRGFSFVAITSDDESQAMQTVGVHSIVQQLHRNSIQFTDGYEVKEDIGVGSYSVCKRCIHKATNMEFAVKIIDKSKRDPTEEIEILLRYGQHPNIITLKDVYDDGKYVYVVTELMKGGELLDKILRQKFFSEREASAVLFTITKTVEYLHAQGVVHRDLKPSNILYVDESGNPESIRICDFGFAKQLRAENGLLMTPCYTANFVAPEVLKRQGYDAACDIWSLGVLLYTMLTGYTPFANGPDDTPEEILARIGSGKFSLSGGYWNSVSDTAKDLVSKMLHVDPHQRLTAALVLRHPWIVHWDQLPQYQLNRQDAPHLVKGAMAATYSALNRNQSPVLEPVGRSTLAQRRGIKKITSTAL
T3 sequence (P16234 24-1089): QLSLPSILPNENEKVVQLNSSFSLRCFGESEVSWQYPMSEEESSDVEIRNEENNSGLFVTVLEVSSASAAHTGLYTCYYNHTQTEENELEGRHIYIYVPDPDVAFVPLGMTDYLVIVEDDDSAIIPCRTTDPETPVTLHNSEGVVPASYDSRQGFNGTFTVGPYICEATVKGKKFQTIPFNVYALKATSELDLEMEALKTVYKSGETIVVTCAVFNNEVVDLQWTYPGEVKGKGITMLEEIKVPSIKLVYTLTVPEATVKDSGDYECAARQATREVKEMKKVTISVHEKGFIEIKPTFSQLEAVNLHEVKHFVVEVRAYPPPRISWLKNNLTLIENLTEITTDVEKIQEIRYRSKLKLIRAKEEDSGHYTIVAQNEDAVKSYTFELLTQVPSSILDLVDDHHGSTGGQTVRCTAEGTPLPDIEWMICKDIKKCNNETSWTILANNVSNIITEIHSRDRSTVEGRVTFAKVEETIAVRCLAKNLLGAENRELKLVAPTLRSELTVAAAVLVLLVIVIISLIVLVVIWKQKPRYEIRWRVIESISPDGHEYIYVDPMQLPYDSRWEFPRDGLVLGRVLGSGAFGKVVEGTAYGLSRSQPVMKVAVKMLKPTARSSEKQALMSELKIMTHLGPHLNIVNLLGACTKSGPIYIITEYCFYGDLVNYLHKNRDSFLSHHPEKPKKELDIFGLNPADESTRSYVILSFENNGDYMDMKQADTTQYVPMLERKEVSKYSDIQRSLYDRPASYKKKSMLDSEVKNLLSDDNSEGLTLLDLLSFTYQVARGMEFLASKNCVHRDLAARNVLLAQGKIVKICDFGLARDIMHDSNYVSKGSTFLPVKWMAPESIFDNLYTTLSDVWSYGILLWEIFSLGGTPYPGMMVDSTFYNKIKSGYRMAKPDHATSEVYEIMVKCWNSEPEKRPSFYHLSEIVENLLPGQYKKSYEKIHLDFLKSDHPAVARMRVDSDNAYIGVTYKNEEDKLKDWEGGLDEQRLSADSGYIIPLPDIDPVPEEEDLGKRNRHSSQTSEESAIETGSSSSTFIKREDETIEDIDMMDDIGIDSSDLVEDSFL
T7 sequence (P53671 whole entry): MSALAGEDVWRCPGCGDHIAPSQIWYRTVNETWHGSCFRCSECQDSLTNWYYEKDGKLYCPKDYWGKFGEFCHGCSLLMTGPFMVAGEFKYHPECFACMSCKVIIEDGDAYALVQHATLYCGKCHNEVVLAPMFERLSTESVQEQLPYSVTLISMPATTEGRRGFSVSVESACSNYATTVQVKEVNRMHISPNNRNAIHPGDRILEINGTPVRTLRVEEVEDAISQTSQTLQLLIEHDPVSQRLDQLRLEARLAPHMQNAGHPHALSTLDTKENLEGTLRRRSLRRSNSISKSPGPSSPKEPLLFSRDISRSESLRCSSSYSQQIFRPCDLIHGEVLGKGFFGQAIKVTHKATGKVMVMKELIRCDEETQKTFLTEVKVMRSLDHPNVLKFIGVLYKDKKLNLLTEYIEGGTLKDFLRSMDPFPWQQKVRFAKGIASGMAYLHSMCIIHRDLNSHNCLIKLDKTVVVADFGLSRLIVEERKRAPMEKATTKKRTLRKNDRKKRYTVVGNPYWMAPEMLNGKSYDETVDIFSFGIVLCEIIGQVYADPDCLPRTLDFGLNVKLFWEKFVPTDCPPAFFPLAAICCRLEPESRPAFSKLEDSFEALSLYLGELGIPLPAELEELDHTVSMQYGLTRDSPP
T6 sequence (O75716 whole entry): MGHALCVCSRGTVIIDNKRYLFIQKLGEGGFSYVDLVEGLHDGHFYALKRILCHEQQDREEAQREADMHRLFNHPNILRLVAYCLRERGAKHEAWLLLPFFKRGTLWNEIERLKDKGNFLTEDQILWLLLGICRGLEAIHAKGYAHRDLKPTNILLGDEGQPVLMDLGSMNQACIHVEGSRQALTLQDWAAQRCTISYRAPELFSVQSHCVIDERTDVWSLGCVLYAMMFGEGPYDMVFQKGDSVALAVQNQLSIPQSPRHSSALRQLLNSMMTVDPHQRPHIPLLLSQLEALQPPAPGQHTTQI
T1 sequence (Q9UQM7 whole entry): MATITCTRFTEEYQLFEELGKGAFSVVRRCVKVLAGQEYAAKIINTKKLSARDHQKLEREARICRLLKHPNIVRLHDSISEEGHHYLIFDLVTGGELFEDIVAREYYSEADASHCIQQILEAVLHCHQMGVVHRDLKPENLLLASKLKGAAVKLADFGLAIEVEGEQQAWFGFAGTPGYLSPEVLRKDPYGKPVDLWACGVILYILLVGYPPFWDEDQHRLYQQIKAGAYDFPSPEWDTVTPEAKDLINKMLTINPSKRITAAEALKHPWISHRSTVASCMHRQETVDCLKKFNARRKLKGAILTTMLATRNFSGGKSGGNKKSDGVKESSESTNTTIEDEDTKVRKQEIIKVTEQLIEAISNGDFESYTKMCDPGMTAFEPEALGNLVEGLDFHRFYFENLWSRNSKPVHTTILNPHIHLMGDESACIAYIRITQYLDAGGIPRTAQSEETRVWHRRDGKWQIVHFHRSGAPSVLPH
T9 sequence (O96013 whole entry): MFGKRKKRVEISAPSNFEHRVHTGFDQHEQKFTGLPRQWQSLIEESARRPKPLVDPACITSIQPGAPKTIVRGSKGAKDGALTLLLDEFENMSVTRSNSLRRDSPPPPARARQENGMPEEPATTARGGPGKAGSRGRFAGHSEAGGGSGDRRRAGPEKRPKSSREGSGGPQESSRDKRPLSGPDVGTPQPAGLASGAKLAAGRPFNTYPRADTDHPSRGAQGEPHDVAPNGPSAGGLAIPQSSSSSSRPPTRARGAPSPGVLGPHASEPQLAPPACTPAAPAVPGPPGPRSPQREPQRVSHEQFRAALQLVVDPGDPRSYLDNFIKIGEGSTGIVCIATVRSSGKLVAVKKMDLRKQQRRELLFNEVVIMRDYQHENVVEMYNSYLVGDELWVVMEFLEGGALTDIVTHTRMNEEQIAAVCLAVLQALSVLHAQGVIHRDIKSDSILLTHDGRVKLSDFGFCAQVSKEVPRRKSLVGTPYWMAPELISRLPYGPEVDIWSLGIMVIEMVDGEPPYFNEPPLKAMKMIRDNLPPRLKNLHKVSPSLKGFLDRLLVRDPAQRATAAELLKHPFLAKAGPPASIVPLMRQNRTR

## CNC(=O)c1ccc2c(c1)C(=O)c1ccc(Nc3ccc(F)c(NC(=O)C4CC4)c3)cc1CC2 [Compound 2015]
[1]; 0.2 µM 2015, read-out: CAMK2A residual activity
  remaining activity at 0.2 µM: 102%
[1]; 1 µM 2015, read-out: CAMK2A residual activity
  remaining activity at 1 µM: 96.4%
[1]; CAMK2A, 1 µM, read-out: residual activity
  remaining activity at 1 µM: 96.4%
[2]; 0.2 µM 2015, read-out: CDK18/CycY residual activity
  remaining activity at 0.2 µM: 102%
[2]; 1 µM 2015, read-out: CDK18/CycY residual activity
  remaining activity at 1 µM: 92.8%
[2]; CDK18/CycY, 0.2 µM, read-out: residual activity
  remaining activity at 0.2 µM: 102%
[2]; CDK18/CycY, 1 µM, read-out: residual activity
  remaining activity at 1 µM: 92.8%
[3]; 0.2 µM 2015, read-out: PDGFRalpha residual activity
  remaining activity at 0.2 µM: 102%
[3]; 1 µM 2015, read-out: PDGFRalpha residual activity
  remaining activity at 1 µM: 95.4%
[3]; PDGFRalpha, 0.2 µM, read-out: residual activity
  remaining activity at 0.2 µM: 102%
[3]; PDGFRalpha, 1 µM, read-out: residual activity
  remaining activity at 1 µM: 95.4%
[4]; 0.2 µM 2015, read-out: PAK3 residual activity
  remaining activity at 0.2 µM: 97.6%
[4]; 1 µM 2015, read-out: PAK3 residual activity
  remaining activity at 1 µM: 96.3%
[4]; PAK3, 0.2 µM, read-out: residual activity
  remaining activity at 0.2 µM: 97.6%
[4]; PAK3, 1 µM, read-out: residual activity
  remaining activity at 1 µM: 96.3%
[5]; 0.2 µM 2015, read-out: MAPKAPK5 residual activity
  remaining activity at 0.2 µM: 123%
[5]; 1 µM 2015, read-out: MAPKAPK5 residual activity
  remaining activity at 1 µM: 109%
[5]; MAPKAPK5, 0.2 µM, read-out: residual activity
  remaining activity at 0.2 µM: 123%
[5]; MAPKAPK5, 1 µM, read-out: residual activity
  remaining activity at 1 µM: 109%
[6]; 0.2 µM 2015, read-out: TSF1 residual activity
  remaining activity at 0.2 µM: 95.7%
[6]; 1 µM 2015, read-out: TSF1 residual activity
  remaining activity at 1 µM: 85.7%
[6]; TSF1, 0.2 µM, read-out: residual activity
  remaining activity at 0.2 µM: 95.7%
[6]; TSF1, 1 µM, read-out: residual activity
  remaining activity at 1 µM: 85.7%
[7]; 0.2 µM 2015, read-out: LIMK2 residual activity
  remaining activity at 0.2 µM: 114%
[7]; 1 µM 2015, read-out: LIMK2 residual activity
  remaining activity at 1 µM: 103%
[7]; LIMK2, 0.2 µM, read-out: residual activity
  remaining activity at 0.2 µM: 114%
[7]; LIMK2, 1 µM, read-out: residual activity
  remaining activity at 1 µM: 103%
[8]; 0.2 µM 2015, read-out: ARAF YDYD residual activity
  remaining activity at 0.2 µM: 98.8%
[8]; 1 µM 2015, read-out: ARAF YDYD residual activity
  remaining activity at 1 µM: 106%
[8]; ARAF YDYD, 0.2 µM, read-out: residual activity
  remaining activity at 0.2 µM: 98.8%
[8]; ARAF YDYD, 1 µM, read-out: residual activity
  remaining activity at 1 µM: 106%
[9]; 0.2 µM 2015, read-out: PAK4 residual activity
  remaining activity at 0.2 µM: 92.5%
[9]; 1 µM 2015, read-out: PAK4 residual activity
  remaining activity at 1 µM: 85.8%
[9]; PAK4, 0.2 µM, read-out: residual activity
  remaining activity at 0.2 µM: 92.5%
[9]; PAK4, 1 µM, read-out: residual activity
  remaining activity at 1 µM: 85.8%
[10]; 0.2 µM 2015, read-out: RPS6KA3 residual activity
  remaining activity at 0.2 µM: 107%
[10]; 1 µM 2015, read-out: RPS6KA3 residual activity
  remaining activity at 1 µM: 103%
[10]; RPS6KA3, 0.2 µM, read-out: residual activity
  remaining activity at 0.2 µM: 107%
[10]; RPS6KA3, 1 µM, read-out: residual activity
  remaining activity at 1 µM: 103%
[11]; 0.2 µM 2015, read-out: ACVR1 residual activity
  remaining activity at 0.2 µM: 88.7%
[11]; 1 µM 2015, read-out: ACVR1 residual activity
  remaining activity at 1 µM: 96.8%
[11]; ACVR1, 0.2 µM, read-out: residual activity
  remaining activity at 0.2 µM: 88.7%
[11]; ACVR1, 1 µM, read-out: residual activity
  remaining activity at 1 µM: 96.8%
